Results published in the supplement of paper PMC10307832.

How the values were obtained:
IU1-47 + AZD7762 = compound: CC1=CC(=C(N1C2=CC=C(C=C2)Cl)C)C(=O)CN3CCCCC3 [IU1-47] + NC(=O)Nc1cc(-c2cccc(F)c2)sc1C(=O)N[C@H]1CCCNC1 [AZD7762] (partner 0.2 µM); test: relative viability (nuclei count vs DMSO), 5 days (fraction); higher = more cells survive
In short: (§1)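 After 5 days of treatment, lung cancer cells in 1536-well plates were fixed and stained in a single step (final 0.05% Triton X-100, 1% formaldehyde, 1 ug/ml Hoechst) and their nuclei counted on 4× images. Treatment had been applied by pin tool the day after seeding as one drug alone or as a fixed anchor-drug dose with five library-drug doses (not always all listed) in √10 steps. Relative viability is the nuclei count of treated wells divided by that of vehicle wells, and values are medians of duplicate plates.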

IU1-47 + Trametinib = compound: CC1=CC(=C(N1C2=CC=C(C=C2)Cl)C)C(=O)CN3CCCCC3 [IU1-47] + CC(=O)Nc1cccc(-n2c(=O)n(C3CC3)c(=O)c3c(Nc4ccc(I)cc4F)n(C)c(=O)c(C)c32)c1 [Trametinib] (partner 0.02 µM); test: as above
In short: as §1

Cell Line	relative viability (IU1-47 + AZD7762; first compound 0.08 µM)	relative viability (IU1-47 + AZD7762; first compound 0.253 µM)	relative viability (IU1-47 + AZD7762; first compound 0.8 µM)	relative viability (IU1-47 + AZD7762; first compound 2.53 µM)	relative viability (IU1-47 + AZD7762; first compound 8 µM)	relative viability (IU1-47 + Trametinib; first compound 0.08 µM)	relative viability (IU1-47 + Trametinib; first compound 0.253 µM)	relative viability (IU1-47 + Trametinib; first compound 0.8 µM)	relative viability (IU1-47 + Trametinib; first compound 2.53 µM)	relative viability (IU1-47 + Trametinib; first compound 8 µM)
201T	0.696	0.592	0.633	0.504	0.78	0.719	0.747	0.715	0.7	0.73
A-427	0.747	0.908	0.596	0.82	0.562	0.833	0.879	0.773	0.749	0.636
ABC-1	0.765	0.671	0.774	–	0.729	–	–	–	–	–
BEN	0.677	0.638	0.761	0.535	0.739	1.21	1.1	1.23	0.896	1.15
CAL-12T	0.622	0.695	0.695	0.601	0.629	0.353	0.368	0.309	0.289	0.32
COR-L23	–	–	–	–	–	0.579	0.578	0.595	0.534	0.788
COR-L 105	–	–	–	–	–	0.522	0.422	0.45	0.461	0.459
ChaGo-K-1	0.934	1.01	0.91	0.91	0.954	0.927	0.869	0.958	0.813	0.814
EKVX	0.894	0.866	0.725	–	0.756	0.369	0.374	0.375	–	0.296
EMC-BAC-2	1.1	1.24	1.09	1.07	1.07	0.978	0.948	0.942	1	0.946
EPLC-272H	0.232	0.205	0.226	–	0.217	0.259	0.28	0.264	–	0.258
H3255	1.19	1.01	1.08	0.877	0.893	0.636	0.643	0.7	–	0.587
HARA	0.394	–	0.359	0.176	0.273	0.802	–	0.929	0.628	0.774
HCC-15	1.15	1.5	1.4	–	1.23	0.415	0.384	0.384	–	0.469
HCC-44	1	1.07	1.04	0.959	1.04	1.08	1.1	1.04	1.08	0.992
HCC-78	0.606	0.546	0.638	0.654	0.609	0.929	0.812	0.814	0.515	0.939
HCC-366	0.281	0.357	0.355	0.267	0.236	0.402	0.431	0.394	0.423	0.323
HCC-827	0.174	0.213	0.227	0.202	0.197	0.565	0.481	0.596	0.54	0.517

Cell Line	relative viability (IU1-47 + AZD7762; first compound 0.08 µM)	relative viability (IU1-47 + AZD7762; first compound 0.253 µM)	relative viability (IU1-47 + AZD7762; first compound 0.8 µM)	relative viability (IU1-47 + AZD7762; first compound 2.53 µM)	relative viability (IU1-47 + AZD7762; first compound 8 µM)	relative viability (IU1-47 + Trametinib; first compound 0.08 µM)	relative viability (IU1-47 + Trametinib; first compound 0.253 µM)	relative viability (IU1-47 + Trametinib; first compound 0.8 µM)	relative viability (IU1-47 + Trametinib; first compound 2.53 µM)	relative viability (IU1-47 + Trametinib; first compound 8 µM)
HOP-62	0.488	0.712	0.619	0.493	0.608	0.4	0.332	0.387	0.383	0.348
LC-2-ad	0.851	0.84	0.866	–	0.857	0.951	1.02	0.954	–	0.884
LCLC-97TM1	0.31	0.286	0.294	0.0924	0.245	0.201	0.188	0.198	–	0.179
LCLC-103H	0.84	0.948	0.797	0.54	0.807	0.71	0.817	0.701	0.647	0.7
LK-2	0.488	0.557	0.542	0.368	0.305	0.932	0.834	0.772	0.545	0.831
LOU-NH91	0.824	0.775	0.826	0.815	0.765	0.904	0.845	0.844	0.795	0.749
LU99A	0.404	0.412	0.401	0.33	0.292	0.499	0.355	0.606	0.617	0.543
LXF-289	1.25	1.14	1.21	1.07	1.02	0.689	0.726	0.645	0.68	0.668
NCI-H23	0.229	–	0.227	0.18	0.243	0.5	–	0.305	0.35	0.38
NCI-H322M	0.671	0.696	0.54	0.615	0.488	0.547	0.487	0.503	0.464	0.55
NCI-H358	0.576	0.521	0.5	0.405	0.435	0.129	0.13	0.128	0.135	0.121
NCI-H441	1.38	1.36	1.19	1.18	1.21	0.37	0.338	0.395	0.595	0.439
NCI-H460	0.639	0.635	0.686	0.754	0.628	0.134	0.127	0.2	0.129	0.18
NCI-H520	–	–	–	–	–	0.661	0.671	0.821	0.456	0.633
NCI-H522	0.889	0.726	0.969	0.691	1	0.826	0.747	0.708	0.715	0.865
NCI-H596	1.06	–	1.03	0.889	1.03	0.765	–	0.779	0.834	0.677
NCI-H647	0.551	0.392	0.486	0.386	0.29	0.459	0.432	0.489	0.405	0.443
NCI-H650	1.22	1	1.06	0.947	1.24	0.96	0.958	0.863	0.91	1.06
